System: ammonia lateralization threshold
Assay: Panel evaluation of the lateralization threshold (LT) of ammonia alone and in combination with a PRM
Format: in vivo, panellists
Design: LT of ammonia Panellist 1 Cond II / LT of ammonia Panellist 2 Cond II / LT of ammonia Panellist 3 Cond II: unit not given here
Conditions: for LT of ammonia Panellist 1 Cond II / LT of ammonia Panellist 2 Cond II / LT of ammonia Panellist 3 Cond II / LT of ammonia Panellist 1 %Δ / LT of ammonia Panellist 2 %Δ / LT of ammonia Panellist 3 %Δ: Table 4; for LT of ammonia Panellist 1 Cond II / LT of ammonia Panellist 2 Cond II / LT of ammonia Panellist 3 Cond II: ammonia stimulus combined with PRM stimulus; for LT of ammonia Panellist 1 %Δ / LT of ammonia Panellist 2 %Δ / LT of ammonia Panellist 3 %Δ / Ammonia LT Panellist 1 % Δ / Ammonia LT Panellist 2 % Δ / Ammonia LT Panellist 3 % Δ: change of ammonia LT, Cond II (with PRM) vs Cond I (ammonia alone); for Ammonia LT Panellist 1 Cond II / Ammonia LT Panellist 2 Cond II / Ammonia LT Panellist 1 % Δ / Ammonia LT Panellist 2 % Δ / Ammonia LT Panellist 3 Cond II / Ammonia LT Panellist 3 % Δ: Table 3; for Ammonia LT Panellist 1 Cond II / Ammonia LT Panellist 2 Cond II / Ammonia LT Panellist 3 Cond II: ammonia stimulus combined with PRM stimulus (concentration of Table 2 in propylene glycol)
Method: An ammonia stimulus test range was prepared. To ensure a stable level of ammonia in each stimulus, the ammonia headspace was stabilized by combining appropriate concentrations of NH4Cl, NaOH and H2O instead of simply adding ammonia directly to a solvent. Different concentrations of ammonia were used to create a stimulus test range by utilizing the appropriate amount of each compound (see Table 1).
A stimulus was also prepared for each PRM which was intended to be combined with ammonia stimuli. As the PRMs differed in their potency and to ensure that each PRM stimulus had approximately the same potency, an abbreviated dose response curve was constructed for each PRM by having four panellists evaluate the intensity of five concentration levels of the PRM dissolved in propylene glycol in duplicate. Assessments were made relative to the reference of 170 ppm allyl heptanoate in propylene glycol, which intensity was set to 0. Based upon the average scores, a rough intensity match was made for each PRM utilizing one of the following criteria. If one of the tested concentration levels averaged at or near zero, this concentration level was selected. If the rating created any sort of reasonable curve, the equation of the curve was determined and solved for 0 to arrive at the PRM assessment level. If multiple concentration levels were equally distant form the match level, then the standard deviation across individuals was considered, as were the individual responses. In general, the PRM level was selected to be on average close to 0 with low variability, with two panellists saying the level was a bit too high and the other two panellists saying the level was a bit too low. The PRMs for which a stimulus was prepared are listed in Table 2 below, together with the concentration of the PRM in the stimulus.
Volunteers were screened for their ability to lateralize ammonia stimuli. For the screening, the experimenter measured the participant's lateralization threshold for ammonia using a two-alternative forced choice modified staircase procedure employing a four-in, two-down, one-up rule with a five reversal criterion, as described below, On each trial volunteers were presented with a pair of glass bottles with clean, custom-made nose pieces. One bottle contained ammonia at a particular level selected from Table 1 and the other bottle contained water only. Each bottle was applied to one nostril using the nose piece. The volunteers were asked to identify which bottle in each pair contained ammonia.
If the ammonia stimulus was correctly identified in four consecutive trials, the concentration was decreased by one level of Table 1 on the next trial. If an incorrect answer was provided, the concentration was increased by one level of Table 1. Location (left or right nostril) of the stimulus was randomized over presentations. Testing continued until one of the following occurred: • 1) Five reversals (correct decision followed by an incorrect decision or vice versa) were achieved; • 2) The volunteer gave a correct response twice in a row at the lowest level of Table 1; or • 3) The volunteer gave an incorrect response at the highest level of Table 1.
In the first circumstance, threshold values were then calculated by averaging the last four reversals. In the second circumstance, the LT was the lowest level. In the third circumstance, the LT could not be calculated. Volunteers were considered qualified to participate in the panel evaluation if their LT could be calculated (Circumstance 1).
The LT of ammonia, both alone and in combination with diverse PRM, was determined. A repeated-measures design was used, such that the LT with and without the addition of a PRM were both measured at the same time in one person by utilizing interwoven stimuli presentations. The LT for each PRM was measured by two to three panellists, the third panellists being included if the results of the first to panellists disagreed. […]

C[C@@H]1CC[C@H]2[C@H](C)C(=O)O[C@@H]2C1 [(+)-(3S,3AS,6R,7AR)-perhydro-3,6-dimethyl-benzo[B]furan-2-one]
LT of ammonia Panellist 1 Cond II: 19.6 | LT of ammonia Panellist 2 Cond II: 3.5 | LT of ammonia Panellist 3 Cond II: 11.1 | LT of ammonia Panellist 1 %Δ: 885% | LT of ammonia Panellist 2 %Δ: 4929% | LT of ammonia Panellist 3 %Δ: 1682%

C=CCOC(=O)COC1CCCCC1 [Cyclogalbanate, Allyl (cyclohexyloxy)-acetate]
LT of ammonia Panellist 1 Cond II: 2.0 | LT of ammonia Panellist 2 Cond II: 6.3 | LT of ammonia Panellist 3 Cond II: 3.5 | LT of ammonia Panellist 1 %Δ: 216% | LT of ammonia Panellist 2 %Δ: 453% | LT of ammonia Panellist 3 %Δ: 212%

C=C(C)C1CC=C(C)C(=O)C1 (stereo not drawn) [Carvone]
Ammonia LT Panellist 1 Cond II: 19.1 ppm | Ammonia LT Panellist 2 Cond II: 225.5 ppm | Ammonia LT Panellist 1 % Δ: 214% | Ammonia LT Panellist 2 % Δ: 214%

CCOC(=O)C(C)CC (stereo not drawn) [Ethyl 2-methylbutanoate]
LT of ammonia Panellist 1 Cond II: 19.6 | LT of ammonia Panellist 2 Cond II: 11.1 | LT of ammonia Panellist 3 Cond II: 11.1 | LT of ammonia Panellist 1 %Δ: 214% | LT of ammonia Panellist 2 %Δ: 213% | LT of ammonia Panellist 3 %Δ: 77%

CCCCCC1C(=O)CCC1CC(=O)OC (stereo not drawn) [Hedione ®, Methyl dihydrojasmonate]
Ammonia LT Panellist 1 Cond II: 7.5 ppm | Ammonia LT Panellist 2 Cond II: 22.9 ppm | Ammonia LT Panellist 3 Cond II: 6.1 ppm | Ammonia LT Panellist 1 % Δ: 23% | Ammonia LT Panellist 2 % Δ: −90% | Ammonia LT Panellist 3 % Δ: −68%

CCCCC(CC)CCC(C)O (stereo not drawn) [5-ethyl-2-nonanol]
LT of ammonia Panellist 1 Cond II: 19.6 | LT of ammonia Panellist 2 Cond II: 6.2 | LT of ammonia Panellist 3 Cond II: 6.3 | LT of ammonia Panellist 1 %Δ: 885% | LT of ammonia Panellist 2 %Δ: 452% | LT of ammonia Panellist 3 %Δ: 214%

CCCC(C)C(=O)OCC (stereo not drawn) [Applinate ®, Ethyl 2-methyl-pentanoate]
Ammonia LT Panellist 1 Cond II: 2.3 ppm | Ammonia LT Panellist 2 Cond II: 55.1 ppm | Ammonia LT Panellist 1 % Δ: −62% | Ammonia LT Panellist 2 % Δ: −23%

C=CCOC(=O)CCCCCC [Allyl heptanoate]
Ammonia LT Panellist 1 Cond II: 71.9 ppm | Ammonia LT Panellist 2 Cond II: 225.5 ppm | Ammonia LT Panellist 1 % Δ: 28% | Ammonia LT Panellist 2 % Δ: 20%

COc1cc(C)ccc1O [Creosol H]
Ammonia LT Panellist 1 Cond II: 17.9 ppm | Ammonia LT Panellist 2 Cond II: 7.3 ppm | Ammonia LT Panellist 1 % Δ: −68% | Ammonia LT Panellist 2 % Δ: −90%

Cc1ccc2c(c1)CC(C)(CO)C2 (stereo not drawn) [Lilyflore ®, 2,5-Dimethyl-2-indanmethanol]
Ammonia LT Panellist 1 Cond II: 60.0 ppm | Ammonia LT Panellist 2 Cond II: 176.5 ppm | Ammonia LT Panellist 3 Cond II: 7.3 ppm | Ammonia LT Panellist 1 % Δ: 162% | Ammonia LT Panellist 2 % Δ: −6% | Ammonia LT Panellist 3 % Δ: −84%

CC(=O)OCCC1CCCCC1 [2-cyclohexylethyl acetate]
LT of ammonia Panellist 1 Cond II: 2.0 | LT of ammonia Panellist 2 Cond II: 1.1 | LT of ammonia Panellist 3 Cond II: 1.1 | LT of ammonia Panellist 1 %Δ: 848% | LT of ammonia Panellist 2 %Δ: 465% | LT of ammonia Panellist 3 %Δ: 842%

CCC1CC(C)(C)CCC1=O (stereo not drawn) [2-Ethyl-4,4-dimethyl-1-cyclohexanone]
LT of ammonia Panellist 1 Cond II: 3.5 | LT of ammonia Panellist 2 Cond II: 2.0 | LT of ammonia Panellist 3 Cond II: 2.0 | LT of ammonia Panellist 1 %Δ: 212% | LT of ammonia Panellist 2 %Δ: 471% | LT of ammonia Panellist 3 %Δ: 217%

CCCCCCOC(=O)c1ccccc1O [Hexyl salicylate]
Ammonia LT Panellist 1 Cond II: 7.3 ppm | Ammonia LT Panellist 2 Cond II: 188.3 ppm | Ammonia LT Panellist 3 Cond II: 7.3 ppm | Ammonia LT Panellist 1 % Δ: −68% | Ammonia LT Panellist 2 % Δ: 162% | Ammonia LT Panellist 3 % Δ: −62%

CCOC(=O)C(=O)C(C)CC (stereo not drawn) [Ethyl 3-methyl-2-oxopentanoate]
LT of ammonia Panellist 1 Cond II: 0.6 | LT of ammonia Panellist 2 Cond II: 0.6 | LT of ammonia Panellist 3 Cond II: 0.6 | LT of ammonia Panellist 1 %Δ: 417% | LT of ammonia Panellist 2 %Δ: 786% | LT of ammonia Panellist 3 %Δ: 210%

CCC(=O)OCC(C)(C)O[C@@H](C)[C@@H]1CCCC(C)(C)C1 [Helvetolide ®, (+)-(1S,1′R)-2-[1-(3′,3′-dimethyl-1′-cyclohexyl)ethoxy]-2-methylpropyl propanoate]
LT of ammonia Panellist 1 Cond II: 11.1 | LT of ammonia Panellist 2 Cond II: 2.0 | LT of ammonia Panellist 3 Cond II: 2.0 | LT of ammonia Panellist 1 %Δ: 454% | LT of ammonia Panellist 2 %Δ: 426% | LT of ammonia Panellist 3 %Δ: 895%

CC(C)=CCC[C@](C)(O)[C@@H]1CC=C(C)CC1 [Alpha-bisabolol]
Ammonia LT Panellist 1 Cond II: 7.3 ppm | Ammonia LT Panellist 2 Cond II: 172.7 ppm | Ammonia LT Panellist 1 % Δ: 213% | Ammonia LT Panellist 2 % Δ: 655%

CC=CC(=O)C1=C(C)CCCC1(C)C [Beta Dorinone ®, 1-(2,6,6-trimethyl-1-cyclohexen-1-yl)-2-buten-1-one]
LT of ammonia Panellist 1 Cond II: 11.1 | LT of ammonia Panellist 2 Cond II: 19.6 | LT of ammonia Panellist 3 Cond II: 2.0 | LT of ammonia Panellist 1 %Δ: 214% | LT of ammonia Panellist 2 %Δ: 885% | LT of ammonia Panellist 3 %Δ: 1558%

3-Methyl-(4/5)-cyclopentadecenone [Muscenone ™]
LT of ammonia Panellist 1 Cond II: 11.1 | LT of ammonia Panellist 2 Cond II: 11.1 | LT of ammonia Panellist 3 Cond II: 11.1 | LT of ammonia Panellist 1 %Δ: 454% | LT of ammonia Panellist 2 %Δ: 77% | LT of ammonia Panellist 3 %Δ: 214%

CC1=C(C=O)C(C)(C)CC=C1 [Safranal]
Ammonia LT Panellist 1 Cond II: 22.9 ppm | Ammonia LT Panellist 2 Cond II: 2.2E−03 ppm | Ammonia LT Panellist 1 % Δ: 20% | Ammonia LT Panellist 2 % Δ: 3088%

O=Cc1ccc2c(c1)OCO2 [Heliotropine ®, 1,3-Benzodioxole-5-carbaldehyde]
Ammonia LT Panellist 1 Cond II: 7.3 ppm | Ammonia LT Panellist 2 Cond II: 22.9 ppm | Ammonia LT Panellist 3 Cond II: 2.3 ppm | Ammonia LT Panellist 1 % Δ: 274% | Ammonia LT Panellist 2 % Δ: −87% | Ammonia LT Panellist 3 % Δ: −96%

C=C(CC(C)CO)C1CC=C(C)C1(C)C (stereo not drawn) [2-Methyl-4-(2,2,3-trimethyl-3-cyclopenten-1-yl)-4-penten-1-ol]
LT of ammonia Panellist 1 Cond II: 3.5 | LT of ammonia Panellist 2 Cond II: 3.5 | LT of ammonia Panellist 3 Cond II: 2.0 | LT of ammonia Panellist 1 %Δ: 212% | LT of ammonia Panellist 2 %Δ: 212% | LT of ammonia Panellist 3 %Δ: 852%

CC(CC=O)CCCC(C)(C)O (stereo not drawn) [Hydroxycitronellal]
Ammonia LT Panellist 1 Cond II: 71.9 ppm | Ammonia LT Panellist 2 Cond II: 56.1 ppm | Ammonia LT Panellist 3 Cond II: 22.9 ppm | Ammonia LT Panellist 1 % Δ: 20% | Ammonia LT Panellist 2 % Δ: −22% | Ammonia LT Panellist 3 % Δ: 20%

CCCCC[C@H]1CCC[C@H]1O (relative stereo) [Cis-2-pentyl-1-cyclopentanol]
LT of ammonia Panellist 1 Cond II: 2.0 | LT of ammonia Panellist 2 Cond II: 0.4 | LT of ammonia Panellist 3 Cond II: 3.5 | LT of ammonia Panellist 1 %Δ: 216% | LT of ammonia Panellist 2 %Δ: 90% | LT of ammonia Panellist 3 %Δ: 212%

CCCc1ccc2c(c1)OCC(=O)CO2 [7-Propyl-2H,4H-1,5-benzodioxepin-3-one]
LT of ammonia Panellist 1 Cond II: 11.1 | LT of ammonia Panellist 2 Cond II: 6.3 | LT of ammonia Panellist 3 Cond II: 3.5 | LT of ammonia Panellist 1 %Δ: 456% | LT of ammonia Panellist 2 %Δ: 453% | LT of ammonia Panellist 3 %Δ: 212%

Mixture of (E)-4-(2,2,C-3,T-6-tetramethyl-R-1-cyclohexyl)-3-buten-2-one and (E)-4-(2,2,T-3,T-6-tetramethyl-R-1-cyclohexyl)-3-buten-2-one [Myrrhone ®]
LT of ammonia Panellist 1 Cond II: 11.1 | LT of ammonia Panellist 2 Cond II: 3.5 | LT of ammonia Panellist 3 Cond II: 3.5 | LT of ammonia Panellist 1 %Δ: 77% | LT of ammonia Panellist 2 %Δ: 212% | LT of ammonia Panellist 3 %Δ: 77%
